In patent US11478478B2, “2,3-disubstituted 1-acyl-4-amino-1,2,3,4-tetrahydroquinoline derivatives and their use as bromodomain inhibitors” (GLAXOSMITHKLINE INTELLECTUAL PROPERTY (NO.2) LIMITED, priority 2013, dated 2022):

How the values were obtained:
[1] = biological target: T1, BRD4 BD2 (Homo sapiens, UniProt O60885, Y97A); test: TR-FRET binding assay, BRD4 BD2 (BD1-mutated protein); settings: read-out: pIC50 in the BRD4 BD2 assay (converted)
T1 construct: BRD4 (1-477) (Y97A) and (Y390A); made in house; host or cells: E. coli (pET15b vector)
Method in brief: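 Displacement of Alexa Fluor647-labelled bromodomain ligand (at Kd) from 10 nM His-tagged BRD4 (1-477, Y97A) read by Eu-anti-His TR-FRET (665/615 ratio) in pH 7.4 HEPES buffer, 0.5% DMSO. Compound preincubated 30 min at rt, detection ≥30 min. pIC50 derived from four-parameter fit after normalisation to controls.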

[2] = system: Bromodomains BRD2, BRD3, BRD4 and BRDT; test: Binding of the fluoroligand to mutated versus non-mutated bromodomain; set-up: species or system Human; settings: single residue mutations in the acetyl lysine binding pocket
Procedure: Time Resolved Fluorescence Resonance Energy Transfer (TR-FRET) Assay Binding was assessed using a time resolved fluorescent resonance energy transfer binding assay. This utilises a 6 His purification tag at the N-terminal of the proteins as an epitope for an anti-6 His antibody labeled with Europium chelate (PerkinElmer AD0111) allowing binding of the Europium to the proteins which acts as the donor fluorophore. A small molecule, high affinity binder of the bromodomains BRD2, BRD3, BRD4 and BRDT has been labeled with Alexa Fluor647 (Reference Compound X) and this acts as the acceptor in the FRET pair.
The binding of the compounds of formula (I) to Bromodomains BRD2, BRD3, BRD4 and BRDT was assessed using mutated proteins to detect differential binding to either Binding Domain 1 (BD1) or Binding Domain 2 (BD2) on the bromodomain. These single residue mutations in the acetyl lysine binding pocket greatly lower the affinity of the fluoroligand (Reference Compound X) for the mutated domain (>1000 fold selective for the non-mutated domain). Therefore in the final assay conditions, binding of the fluoroligand to the mutated domain cannot be detected and subsequently the assay is suitable to determine the binding of compounds to the single non-mutated bromodomain. […]

Row | IC50 [1] | SMILES | selectivity of the fluoroligand for the non-mutated domain over the mutated domain [2]
1 | 0.1 µM | COCCn1cc(-c2ccc3c(c2)[C@H](Nc2nccc(C)n2)[C@@H](C)[C@H](C2CC2)N3C(C)=O)cn1 [Example 557, 1-((2S,3R,4R)-2-cyclopropyl-6-(1-(2-methoxyethyl)-1H-pyrazol-4-yl)-3-methyl-4-((4-methylpyrimidin-2-yl)amino)-3,4-dihydroquinolin-1(2H)-yl)ethanone] | –
2 | 0.1 µM | CC(=O)N1c2ccc(N3CCNCC3)cc2[C@H](Nc2ccc(C(N)=O)cc2)[C@@H](C)[C@@H]1C [Example 571, 4-(((2S,3R,4R)-1-acetyl-2,3-dimethyl-6-(piperazin-1-yl)-1,2,3,4-tetrahydroquinolin-4-yl)amino)benzamide] | –
3 | 0.1 µM | CC(=O)N1c2ccc(-c3cn[nH]c3)cc2[C@H](Nc2ncccn2)[C@@H](C)[C@@H]1C1CC1 [Example 581, 1-((2S,3R,4R)-2-cyclopropyyl-3-methyl-6-(1H-pyrazol-4-yl)-4-(pyrimidin-2-ylamino)-3,4-dihydroquinolin-1(2H)-yl)ethanone] | –
4 | 0.1 µM | CC(=O)N1c2ccc(-c3cn[nH]c3)cc2[C@H](Nc2nccc(C)n2)[C@@H](C)[C@@H]1C1CC1 [Example 582, 1-((2S,3R,4R)-2-cyclopropyl-3-methyl-4-((4-methylpyrimidin-2-yl)amino)-6-(1H-pyrazol-4-yl)-3,4-dihydroquinolin-1(2H)-yl)ethanone] | –
5 | 0.1 µM | CC(=O)N1c2ccc(-c3ncc[nH]3)cc2[C@H](Nc2ncccn2)[C@@H](C)[C@@H]1C1CC1 [Example 588, 1-((2S,3R,4R)-2-cyclopropyl-6-(1H-imidazol-2-yl)-3-methyl-4-(pyrimidin-2-ylamino)-3,4-dihydroquinolin-1(2H)-yl)ethanone] | –
6 | 0.1 µM | CC(=O)N1c2ccc(-c3nnc(C)s3)cc2[C@H](Nc2ncccn2)[C@@H](C)[C@@H]1C1CC1 [Example 590, 1-((2S,3R,4R)-2-cyclopropyl-3-methyl-6-(5-methyl-1,3,4-thiadiazol-2-yl)-4-(pyrimidin-2-ylamino)-3,4-dihydroquinolin-1(2H)-yl)ethanone] | –

More lines, now with the values behind:

Row | SMILES | IC50 [1] | selectivity of the fluoroligand for the non-mutated domain over the mutated domain [2]
7 | CC(=O)N1c2ccc(F)cc2[C@H](Nc2cc(O)ccn2)[C@@H](C)[C@@H]1C1CC1 [Example 532, 1-((2S,3R,4R)-2-cyclopropyl-6-fluoro-4-((4-hydroxypyridin-2-yl)amino)-3-methyl-3,4-dihydroquinolin-1(2H)-yl)ethanone] | 1 to 100 µM | –
8 | CC(=O)N1c2ccc(F)cc2[C@H](Nc2ccc(O)nc2)[C@@H](C)[C@@H]1C1CC1 [Example 533, 1-((2S,3R,4R)-2-cyclopropyl-6-fluoro-4-((6-hydroxypyridin-3-yl)amino)-3-methyl-3,4-dihydroquinolin-1(2H)-yl)ethanone] | 1 to 100 µM | –
9 | CC(=O)N1c2ccc(C3=CCOCC3)cc2[C@H](Nc2ncccn2)[C@@H](C)[C@@H]1C1CC1 [Example 555, 1-((2S,3R,4R)-2-cyclopropyl-6-(3,6-dihydro-2H-pyran-4-yl)-3-methyl-4-(pyrimidin-2-ylamino)-3,4-dihydroquinolin-1(2H)-yl)ethanone] | 0.1 µM | –
10 | COc1ccc2c(c1)C(c1ccc(Cl)cc1)=N[C@@H](CC(=O)NCCCCCNC(=O)CCCCCC1(C)/C(=C/C=C/C=C/C3=[N+](CCCCS(=O)(=O)O)c4ccc(S(=O)(=O)O)cc4C3(C)C)N(CCCCS(=O)(=O)[O-])c3ccc(S(=O)(=O)O)cc31)c1nnc(C)n1-2 (stereo partly shown) [Reference Compound X] | – | > 1000 fold
